From ChEMBL document CHEMBL1201862, “PubChem BioAssay data set” (2004)
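Dose response: 5 concentrations. Exposure: 48 h. Format: 96-well plates. Endpoint: linear interpolation; highest concentration if not reached. GI50 marks 50% less growth.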 The source made the active and inactive calls. Rule as the data show it: active = GI50 up to about 1.1 µM and inactive = higher.

Experiments:
Assay in all cases: DTP human tumour cell line panel, 48 h
A549 = system: A549
MDA-MB-231 = system: MDA-MB-231
NCI-H522 = system: NCI-H522
U-251 = system: U-251
IGROV-1 = system: IGROV-1
RXF 393 = system: RXF 393
MDA-N = system: MDA-N
HCT-15 = system: HCT-15
HCC 2998 = system: HCC 2998
EKVX = system: EKVX
ACHN = system: ACHN
NCI-H460 = system: NCI-H460
HOP-92 = system: HOP-92
MCF7 = system: MCF7
786-0 = system: 786-0
LOX IMVI = system: LOX IMVI
MOLT-4 = system: MOLT-4
KM12 = system: KM12
HOP-62 = system: HOP-62
OVCAR-5 = system: OVCAR-5
M14 = system: M14
SK-MEL-5 = system: SK-MEL-5
OVCAR-3 = system: OVCAR-3
TK-10 = system: TK-10
PC-3 = system: PC-3
UO-31 = system: UO-31
MDA-MB-435 = system: MDA-MB-435
Hs-578T = system: Hs-578T
OVCAR-8 = system: OVCAR-8
SF-295 = system: SF-295
SNB-19 = system: SNB-19
SK-OV-3 = system: SK-OV-3
A498 = system: A498
HL-60 = system: HL-60
HCT-116 = system: HCT-116
SR = system: SR
UACC-62 = system: UACC-62
NCI-H23 = system: NCI-H23
OVCAR-4 = system: OVCAR-4
COLO 205 = system: COLO 205
Malme-3M = system: Malme-3M
SK-MEL-2 = system: SK-MEL-2
SF-268 = system: SF-268
CCRF-CEM = system: CCRF-CEM
DU-145 = system: DU-145
BT-549 = system: BT-549
RPMI-8226 = system: RPMI-8226
SW-620 = system: SW-620
T47D = system: T47D
SNB-75 = system: SNB-75
HT-29 = system: HT-29
SF-539 = system: SF-539
NCI/ADR-RES = system: NCI/ADR-RES
UACC-257 = system: UACC-257
SK-MEL-28 = system: SK-MEL-28
K562 = system: K562
CAKI-1 = system: CAKI-1
SN12C = system: SN12C
NCI-H226 = system: NCI-H226

Measured: GI50

C=C1C(=O)OC2C1CC(O)/C(C)=C\CCC1(C)OC21 (stereo not given)
16.3 µM: HCT-15
inactive: A549 35.5 µM | MDA-MB-231 15.5 µM | NCI-H522 14.8 µM | U-251 20.3 µM | IGROV-1 32.5 µM | RXF 393 16.8 µM | MDA-N 19.1 µM | HCC 2998 35.1 µM | EKVX 36.7 µM | ACHN 39.5 µM | NCI-H460 31.8 µM | HOP-92 34.6 µM | MCF7 28.2 µM | 786-0 31 µM | LOX IMVI 27 µM | MOLT-4 7.35 µM | KM12 32.9 µM | HOP-62 20 µM | OVCAR-5 23.8 µM | M14 23.1 µM | SK-MEL-5 21 µM | OVCAR-3 17.4 µM | TK-10 39.3 µM | PC-3 23.2 µM | UO-31 22.9 µM | MDA-MB-435 27.2 µM | Hs-578T 23.5 µM | OVCAR-8 33.8 µM | SF-295 30.3 µM | SNB-19 48.1 µM | SK-OV-3 49.9 µM | A498 43 µM | HL-60 23.7 µM | HCT-116 29.8 µM | SR 20.2 µM | UACC-62 21.2 µM | NCI-H23 31.3 µM | OVCAR-4 25.6 µM | COLO 205 29.8 µM | Malme-3M 19.2 µM | SK-MEL-2 17.5 µM | SF-268 25.1 µM | CCRF-CEM 25.4 µM | DU-145 32.8 µM | BT-549 23 µM | RPMI-8226 21.4 µM | SW-620 38.8 µM | T47D 46.1 µM | SNB-75 39.8 µM | HT-29 27.5 µM | SF-539 34.2 µM | NCI/ADR-RES 22.7 µM | UACC-257 34 µM | SK-MEL-28 33.3 µM

O=[N+]([O-])c1ccc(/C=C\c2ccc3c(c2)OCO3)c([N+](=O)[O-])c1
14.6 µM: HCT-15
inactive: A549 20.1 µM | MDA-MB-231 17.2 µM | NCI-H522 12.7 µM | U-251 14.2 µM | IGROV-1 12.2 µM | MDA-N 5.52 µM | HCC 2998 14.5 µM | EKVX 13 µM | ACHN 16.6 µM | NCI-H460 19.5 µM | HOP-92 21.2 µM | MCF7 1.86 µM | 786-0 16.9 µM | LOX IMVI 13.4 µM | MOLT-4 17.5 µM | KM12 15.3 µM | HOP-62 25.1 µM | OVCAR-5 18.7 µM | K562 21.3 µM | M14 15.3 µM | SK-MEL-5 19 µM | OVCAR-3 18.2 µM | TK-10 17.3 µM | PC-3 24.8 µM | UO-31 19.9 µM | MDA-MB-435 8.43 µM | Hs-578T 16.8 µM | OVCAR-8 19 µM | SF-295 23 µM | SNB-19 17.3 µM | SK-OV-3 18.7 µM | A498 19 µM | HL-60 17.4 µM | HCT-116 5.53 µM | CAKI-1 25 µM | SR 8 µM | UACC-62 18.7 µM | SN12C 17.5 µM | NCI-H23 21.7 µM | COLO 205 18.4 µM | Malme-3M 19.7 µM | SK-MEL-2 18.3 µM | SF-268 23 µM | CCRF-CEM 18.2 µM | DU-145 18.3 µM | BT-549 16.4 µM | RPMI-8226 4.39 µM | SW-620 17.1 µM | T47D 44.1 µM | SNB-75 17.7 µM | HT-29 19.9 µM | SF-539 20 µM | NCI/ADR-RES 29.2 µM | UACC-257 17.3 µM | SK-MEL-28 17.1 µM
active: RXF 393 0.0316 µM

CC(C)=CCC[C@@H](C)C1=C(O)C(=O)C(C)=C(Nc2ccccc2)C1=O
7.5 µM: HCT-15
inactive: A549 16.9 µM | MDA-MB-231 22.5 µM | U-251 12.5 µM | IGROV-1 17.8 µM | RXF 393 19.2 µM | MDA-N 28.4 µM | HCC 2998 45.1 µM | EKVX 24.2 µM | ACHN 13.5 µM | NCI-H460 13.3 µM | HOP-92 23.5 µM | MCF7 24.5 µM | 786-0 25.3 µM | LOX IMVI 20.6 µM | MOLT-4 6.82 µM | KM12 22.8 µM | HOP-62 11.3 µM | OVCAR-5 52.4 µM | K562 13.2 µM | M14 14.9 µM | SK-MEL-5 17.6 µM | OVCAR-3 9.2 µM | TK-10 29 µM | PC-3 23.9 µM | UO-31 14.5 µM | MDA-MB-435 27.7 µM | Hs-578T 31.8 µM | OVCAR-8 9.18 µM | SF-295 5.77 µM | SNB-19 31.4 µM | SK-OV-3 27.6 µM | A498 20 µM | HL-60 2.98 µM | HCT-116 18.1 µM | CAKI-1 15.1 µM | SR 28 µM | UACC-62 13 µM | SN12C 23.9 µM | NCI-H23 24.9 µM | OVCAR-4 19.3 µM | COLO 205 22.6 µM | Malme-3M 17.8 µM | SK-MEL-2 20.2 µM | SF-268 19.8 µM | CCRF-CEM 1.62 µM | DU-145 24.2 µM | BT-549 24.7 µM | RPMI-8226 43.2 µM | SW-620 22.8 µM | T47D 19.9 µM | SNB-75 31.5 µM | HT-29 31.3 µM | NCI-H226 26.7 µM | SF-539 26 µM | NCI/ADR-RES 4.03 µM | UACC-257 28.1 µM | SK-MEL-28 43 µM
